# Data reported in patent US20230146455A1, “TREATMENT OF INFLAMMATORY DISEASES WITH PEPTIDES AND PHARMACEUTICAL COMPOSITIONS” (Yuyu Pharma, Inc., priority 2020, published 2023).
# Where “and” joins values, the source holds several entries; their conditions need not be identical. Equal entries are not always repeated. Where a SMILES comes first, the peptide text is derived from it. [ ]: non-standard residue; d: D form. Hyp = O=C(O)[C@@H]1C[C@@H](O)CN1
# Key:
# IL-8 = assay: Example 9 Luminex, LPS hPBMCs: IL-8; format: cell-based, human
# Description: (§1) Treatment Human PBMCs were pretreated with YY-101, YDE-011 and YDE-043 or reference compound; Xiidra® at various concentration (ranging from 1 nM to 100 uM) for 2 h before stimulation. An equal volume of 0.5% DMSO was used as a vehicle control. Then, the cells were treated with LPS at 5 ug/ml. The supernatants from treated cells were harvested at 24 h and placed in a 96 well for Luminex cytokine & chemokine profiling using a Luminex 200 multiplex assay (Luminex; R&D system, USA).
# (§2) The main study arm with triplicate wells per group in a 24-well plate: • 1. Blank • 2. PBMC: 0.5% DMSO • 3. PBMC+LPS (5 ug/ml) • 4. PBMC+YY-101 100 uM • 5. PBMC+YY-101 10 uM • 6. PBMC+YY-101 1 uM • 7. PBMC+YY-101 0.1 uM • 8. PBMC+YY-101 0.01 uM • 9. PBMC+LPS (5 ug/ml)+Xiidra®100 uM • 10. PBMC+LPS (5 ug/ml)+Xiidra® 10 uM • 11. PBMC+LPS (5 ug/ml)+Xiidra® 1 uM • 12. PBMC+LPS (5 ug/ml)+Xiidra®0.1 uM • 13. PBMC+LPS (5 ug/ml)+Xiidra®0.01 uM • 14. PBMC+LPS (5 ug/ml)+Xiidra®0.001 uM • 15. PBMC+LPS (5 ug/ml)+YY-101 100 uM • 16. PBMC+LPS (5 ug/ml)+YY-101 10 uM • 17. PBMC+LPS (5 ug/ml)+YY-101 1 uM • 18. PBMC+LPS (5 ug/ml)+YY-101 0.1 uM • 19. PBMC+LPS (5 ug/ml)+YY-101 0.01 uM • 20. PBMC+LPS (5 ug/ml)+YY-101 0.001 uM • 21. PBMC+LPS (5 ug/ml)+YDE-011 100 uM • 22. PBMC+LPS (5 ug/ml)+YDE-011 10 uM • 23. PBMC+LPS (5 ug/ml)+YDE-011 1 uM • 24. PBMC+LPS (5 ug/ml)+YDE-011 0.1 uM • 25. PBMC+LPS (5 ug/ml)+YDE-011 0.01 uM • 26. PBMC+LPS (5 ug/ml)+YDE-011 0.001 uM • 27. PBMC+LPS (5 ug/ml)+YDE-043 100 uM • 28. PBMC+LPS (5 ug/ml)+YDE-043 10 uM • 29. PBMC+LPS (5 ug/ml)+YDE-043 1 uM • 30. PBMC+LPS (5 ug/ml)+YDE-043 0.1 uM • 31. PBMC+LPS (5 ug/ml)+YDE-043 0.01 uM • 32. PBMC+LPS (5 ug/ml)+YDE-043 0.001 uM
# (§3) Multiplex assay was used to measure 30 cytokines and chemokines. The 1:2, 1:10 and 1:200 diluted cell supernatant and serial dilution of the standard were dispensed into a 96 well plate at 50 ul/well. Then, the pre-mixed cocktail of antibody-coated magnetic beads was dispensed at 50 ul/well and incubated at room temperature for 2 h in a horizontal orbital microplate shaker at 800±500 rpm. The beads were washed using a magnetic device to prevent loss. The biotin-antibody was dispensed in 50 ul of each well and incubated at room temperature for 1 h in a shaker at 800±500 rpm. After washing, streptavidin-PE was added at 50 ul/well and incubated at room temperature for 30 min in a shaker under the same conditions. Finally, after washing, wash buffer (100 ul/well) was added to the plate and incubated in a shaker for 2 min. The Luminex™ 200 setting were set according to the manufacturer's protocol. The data was calculated with a standard five-parameter logistic nonlinear regression analysis of the data (xPonent software 4.2, USA). The levels of cytokine/chemokine are normalized to the live cell counts (1×10^5 cells/mL) and presented as concentrations per mL (pg/mL or ng/mL).
# IL-17A = assay: Example 9 Luminex, LPS hPBMCs: IL-17A; format: cell-based, human
# Description: as §1, §2, §3
# [1] = PBMC + LPS(5 ug/ml) + test article 0.001 uM, Mean
# [2] = PBMC + LPS(5 ug/ml) + test article 0.001 uM, single replicates (1st, 2nd, 3rd)
# [3] = PBMC + LPS(5 ug/ml) + test article 0.01 uM, Mean
# [4] = PBMC + LPS(5 ug/ml) + test article 0.01 uM, single replicates (1st, 2nd, 3rd)
# [5] = PBMC + LPS(5 ug/ml) + test article 0.1 uM, Mean
# [6] = PBMC + LPS(5 ug/ml) + test article 0.1 uM, single replicates (1st, 2nd, 3rd)
# [7] = PBMC + LPS(5 ug/ml) + test article 1 uM, Mean
# [8] = PBMC + LPS(5 ug/ml) + test article 1 uM, single replicates (1st, 2nd, 3rd)
# [9] = PBMC + LPS(5 ug/ml) + test article 10 uM, Mean
# [10] = PBMC + LPS(5 ug/ml) + test article 10 uM, single replicates (1st, 2nd, 3rd)
# [11] = PBMC + LPS(5 ug/ml) + test article 100 uM, Mean
# [12] = PBMC + LPS(5 ug/ml) + test article 100 uM, single replicates (1st, 2nd, 3rd)
# [13] = PBMC + test article 0.01 uM, no LPS, Mean
# [14] = PBMC + test article 0.01 uM, no LPS, single replicates (1st, 2nd)
# [15] = PBMC + test article 0.1 uM, no LPS, Mean
# [16] = PBMC + test article 0.1 uM, no LPS, single replicates (1st, 2nd)
# [17] = PBMC + test article 1 uM, no LPS, Mean
# [18] = PBMC + test article 1 uM, no LPS, single replicates (1st, 2nd)
# [19] = PBMC + test article 10 uM, no LPS, Mean
# [20] = PBMC + test article 10 uM, no LPS, single replicates (1st, 2nd)
# [21] = PBMC + test article 100 uM, no LPS, Mean
# [22] = PBMC + test article 100 uM, no LPS, single replicates (1st, 2nd)
structure (smiles),measurement,setting,value
CC(C)C[C@H](NC(=O)CNC(=O)[C@H](CC(=O)O)NC(=O)[C@H](CCC(N)=O)NC(=O)CNC(=O)[C@@H]1C[C@@H](O)CN1)C(=O)N[C@@H](C)C(=O)NCC(=O)N1CCC[C@H]1C(=O)N[C@@H](CCCCN)C(=O)O [YY-101] (H-[Hyp]GQDGLAGPK-OH; N-terminus and C-terminus assumed),Concentration,IL-8; [1],47261.8 pg/mL
same,conc/live cell,IL-8; [1],7362.6 pg/10^5
same,Concentration,IL-8; [2],45291.5 pg/mL and 44844.4 pg/mL and 51649.5 pg/mL
same,conc/live cell,IL-8; [2],7945.9 pg/10^5 and 6316.1 pg/10^5 and 7825.7 pg/10^5
same,Concentration,IL-8; [3],45595.7 pg/mL
same,conc/live cell,IL-8; [3],7399.0 pg/10^5
same,Concentration,IL-8; [4],45499.3 pg/mL and 44844.4 pg/mL and 46443.3 pg/mL
same,conc/live cell,IL-8; [4],7109.3 pg/10^5 and 7474.1 pg/10^5 and 7613.7 pg/10^5
same,Concentration,IL-8; [5],41918.3 pg/mL
same,conc/live cell,IL-8; [5],7205.6 pg/10^5
same,Concentration,IL-8; [6],41283.9 pg/mL and 42997.0 pg/mL and 41473.9 pg/mL
same,conc/live cell,IL-8; [6],6658.7 pg/10^5 and 8268.7 pg/10^5 and 6689.3 pg/10^5
same,Concentration,IL-8; [7],46108.9 pg/mL
same,conc/live cell,IL-8; [7],7089.9 pg/10^5
same,Concentration,IL-8; [8],45195.7 pg/mL and 45259.6 pg/mL and 47871.4 pg/mL
same,conc/live cell,IL-8; [8],7173.9 pg/10^5 and 6374.6 pg/10^5 and 7721.2 pg/10^5
same,Concentration,IL-8; [9],46679.5 pg/mL
same,conc/live cell,IL-8; [9],7101.0 pg/10^5
same,Concentration,IL-8; [10],46315.2 pg/mL and 50742.2 pg/mL and 42981.1 pg/mL
same,conc/live cell,IL-8; [10],7719.2 pg/10^5 and 7928.5 pg/10^5 and 5655.4 pg/10^5
same,Concentration,IL-8; [11],46500.3 pg/mL
same,conc/live cell,IL-8; [11],8028.8 pg/10^5
same,Concentration,IL-8; [12],48337.8 pg/mL and 46988.3 pg/mL and 44174.7 pg/mL
same,conc/live cell,IL-8; [12],7672.7 pg/10^5 and 7578.8 pg/10^5 and 8834.9 pg/10^5
same,Concentration,IL-8; [13],4859.1 pg/mL
same,conc/live cell,IL-8; [13],989.4 pg/10^5
same,Concentration,IL-8; [14],2863.8 pg/mL and 6854.4 pg/mL
same,conc/live cell,IL-8; [14],550.7 pg/10^5 and 1428.0 pg/10^5
same,Concentration,IL-8; [15],4413.2 pg/mL
same,conc/live cell,IL-8; [15],835.0 pg/10^5
same,Concentration,IL-8; [16],2701.4 pg/mL and 6125.1 pg/mL
same,conc/live cell,IL-8; [16],614.0 pg/10^5 and 1056.0 pg/10^5
same,Concentration,IL-8; [17],4580.5 pg/mL
same,conc/live cell,IL-8; [17],832.8 pg/10^5
same,Concentration,IL-8; [18],4461.8 pg/mL and 4699.1 pg/mL
same,conc/live cell,IL-8; [18],811.2 pg/10^5 and 854.4 pg/10^5
same,Concentration,IL-8; [19],21138.7 pg/mL
same,conc/live cell,IL-8; [19],3322.0 pg/10^5
same,Concentration,IL-8; [20],37311.2 pg/mL and 4966.2 pg/mL
same,conc/live cell,IL-8; [20],5829.9 pg/10^5 and 814.1 pg/10^5
same,Concentration,IL-8; [21],15311.8 pg/mL
same,conc/live cell,IL-8; [21],2320.9 pg/10^5
same,Concentration,IL-8; [22],19929.7 pg/mL and 10693.9 pg/mL
same,conc/live cell,IL-8; [22],3114.0 pg/10^5 and 1527.7 pg/10^5
same,"Concentration, IL-17A",IL-17A; [1],3.8 pg/mL
same,"MFI, Bead name: IL-17A",IL-17A; [1],2.2
same,"conc/live cell, IL-17A",IL-17A; [1],0.6 pg/10^5
same,"Concentration, IL-17A",IL-17A; [2],4.3 pg/ml (2×) and 2.7 pg/ml
same,"MFI, Bead name: IL-17A",IL-17A; [2],2.5 (2×) and 1.5
same,"conc/live cell, IL-17A",IL-17A; [2],0.8 pg/10^5 and 0.6 pg/10^5 and 0.4 pg/10^5
same,"Concentration, IL-17A",IL-17A; [3],4.9 pg/mL
same,"MFI, Bead name: IL-17A",IL-17A; [3],2.8
same,"conc/live cell, IL-17A",IL-17A; [3],0.8 pg/10^5
same,"Concentration, IL-17A",IL-17A; [4],6.0 pg/ml (2×) and 2.7 pg/ml
same,"MFI, Bead name: IL-17A",IL-17A; [4],3.5 (2×) and 1.5
